Series [1] concerns Mus musculus. Kind of series: Anxiolytic activity in mouse assessed as transfer number at 100 mg/kg, po. The format is functional.
In series [2] the test system is Mus musculus. Kind of series: Anxiolytic activity in mouse assessed as time spent in light at 100 mg/kg, po. The class given is functional.
Series [3] concerns COLO 205. Kind of series: Cytotoxicity against human COLO 205 cells by MTT assay. The format is functional, cell-based. On the technique in general: Tetrazolium dyes change colour on reduction, which living cells bring about.
In series [4] the test system is MCF7. Kind of series: Cytotoxicity against human MCF7 cells by MTT assay. The format is functional, cell-based.
Series [5] concerns A549. The series can be described thus: Cytotoxicity against human A549 cells by MTT assay. The format is functional, cell-based.
Series [6] deals with SiHa. The series can be described thus: Cytotoxicity against human SiHa cells by MTT assay. The class given is functional, cell-based.
Series [7] deals with Klebsiella pneumoniae. Kind of series: Antibacterial activity against Klebsiella pneumoniae strain 13 assessed as bacterial inhibition at 0.5 mg/ml after 3 hrs. The format is functional. On the set-up: scale not given: the % may be the effect or the level left.
Series [8] deals with Mus musculus. The series can be described thus: Anxiolytic activity in mouse assessed as time spent in light at 10 mg/kg, po. The class given is functional.
Series [9] concerns Mus musculus. The series can be described thus: Anxiolytic activity in mouse assessed as time spent in light at 1 mg/kg, po. The format is functional.
Series [10] relates to Mus musculus. Kind of series: Anxiolytic activity in mouse assessed as time spent in light at 3 mg/kg, po. The format is functional.
The subject of series [11] is Mus musculus. The series can be described thus: Anxiolytic activity in mouse assessed as transfer number at 1 mg/kg, po. The format is functional.
Series [12] has as its system Mus musculus. The series can be described thus: Anxiolytic activity in mouse assessed as transfer number at 30 mg/kg, po. The class given is functional.
Series [13] relates to Mus musculus. Kind of series: Anxiolytic activity in mouse assessed as transfer number at 10 mg/kg, po. The class given is functional.
The subject of series [14] is Mus musculus. Kind of series: Anxiolytic activity in mouse assessed as time spent in light at 30 mg/kg, po. The class given is functional.
Series [15] has as its system Mus musculus. Kind of series: Anxiolytic activity in mouse assessed as transfer number at 3 mg/kg, po. The class given is functional.
Series [16] addresses Gamma-aminobutyric acid receptor subunit alpha-1 (Homo sapiens, UniProt P14867). The series can be described thus: Binding affinity to GABAA alpha1 (unknown origin).
For series [17], the system named is HCT-116. Kind of series: Cytotoxicity against human HCT-116 cells by MTT assay. The class given is functional, cell-based.
For series [18], the system named is Panel NCI-60 (60 carcinoma cell lines). Kind of series: Cytotoxicity against human Panel NCI-60 (60 carcinoma cell lines). Also on record: concentration or dose not given beside the values. The class given is functional.
The nature of series [19]: Cytotoxicity against human WI-38 cells by MTT assay. The class given is toxicity, cell-based.
For series [20], the target named is Cyclin-dependent kinase 1 (Homo sapiens, UniProt P06493). Kind of series: Inhibition of CDK1 (unknown origin).
Series [21] has as its system HepG2. The series can be described thus: Cytotoxicity against human HepG2 cells by MTT assay. The format is functional, cell-based.
The subject of series [22] is Candida albicans. The series can be described thus: Antifungal activity against Candida albicans assessed as zone of inhibition at 5 mg/ml. The format is functional. The settings on record: read-out: IZ.
Series [23] deals with Aspergillus flavus. The series can be described thus: Antifungal activity against Aspergillus flavus assessed as zone of inhibition at 5 mg/ml. The format is functional. The settings on record: read-out: IZ.
The test system of series [24] is Enterococcus faecalis. Kind of series: Antibacterial activity against Enterococcus faecalis assessed as zone of inhibition at 5 mg/ml. The format is functional. The settings on record: read-out: IZ.
The subject of series [25] is Aspergillus fumigatus. The series can be described thus: Antifungal activity against Aspergillus fumigatus assessed as zone of inhibition at 5 mg/ml. The class given is functional. The settings on record: read-out: IZ.
The subject of series [26] is Bacillus subtilis. Kind of series: Antibacterial activity against Bacillus subtilis assessed as zone of inhibition at 5 mg/ml. The format is functional. The settings on record: read-out: IZ.
Series [27] deals with Escherichia coli. Kind of series: Antibacterial activity against Escherichia coli assessed as zone of inhibition at 5 mg/ml. The format is functional. Particulars: read-out: IZ.
Series [28] has as its system Proteus vulgaris. Kind of series: Antibacterial activity against Proteus vulgaris assessed as zone of inhibition at 5 mg/ml. The format is functional. Particulars: read-out: IZ.
For series [29], the system named is Staphylococcus aureus. The series can be described thus: Antibacterial activity against Staphylococcus aureus assessed as zone of inhibition at 5 mg/ml. The settings on record: read-out: IZ. The format is functional.
For series [30], the system named is Streptococcus mutans. Kind of series: Antibacterial activity against Streptococcus mutans assessed as zone of inhibition at 5 mg/ml. The class given is functional. The settings on record: read-out: IZ.

In brackets after ≈: the same amount, converted by molar mass.

These results are taken from ChEMBL document CHEMBL5241120, “Insights into the medicinal chemistry of heterocycles integrated with a pyrazolo[1,5-a]pyrimidine scaffold” (RSC Med Chem, 2022).

Chain of Gamma-aminobutyric acid receptor subunit alpha-1 (P14867 whole entry): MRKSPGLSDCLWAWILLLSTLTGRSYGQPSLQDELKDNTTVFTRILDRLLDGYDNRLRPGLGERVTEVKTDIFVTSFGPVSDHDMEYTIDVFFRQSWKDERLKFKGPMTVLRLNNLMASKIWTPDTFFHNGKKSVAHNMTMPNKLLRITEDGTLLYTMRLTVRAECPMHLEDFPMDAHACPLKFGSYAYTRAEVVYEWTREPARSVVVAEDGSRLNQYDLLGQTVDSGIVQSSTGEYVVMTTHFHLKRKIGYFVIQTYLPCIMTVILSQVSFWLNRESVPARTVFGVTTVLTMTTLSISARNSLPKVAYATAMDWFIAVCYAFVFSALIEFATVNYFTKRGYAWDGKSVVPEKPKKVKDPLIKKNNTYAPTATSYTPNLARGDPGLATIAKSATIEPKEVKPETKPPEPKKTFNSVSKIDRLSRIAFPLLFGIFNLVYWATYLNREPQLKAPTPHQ
Chain of Cyclin-dependent kinase 1 (P06493 whole entry): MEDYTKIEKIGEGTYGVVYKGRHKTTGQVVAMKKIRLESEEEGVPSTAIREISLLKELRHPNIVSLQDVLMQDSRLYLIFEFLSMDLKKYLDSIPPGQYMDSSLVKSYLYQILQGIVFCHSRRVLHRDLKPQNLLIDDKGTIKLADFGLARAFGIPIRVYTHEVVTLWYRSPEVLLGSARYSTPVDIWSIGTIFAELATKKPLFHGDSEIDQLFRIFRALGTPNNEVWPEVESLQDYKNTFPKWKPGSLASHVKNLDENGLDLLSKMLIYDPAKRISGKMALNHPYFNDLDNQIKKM

Take `CCOC(=O)c1ncn2c1CN(C)C(=O)c1cc(F)ccc1-2` [FLUMAZENIL]: the Activity in series [1] is 12.8; in [2] it was 120.08%.
With `COc1ccc(-c2cc(-c3nn4cc(-c5ccncc5)cnc4c3S(=O)(=O)c3cc(OC)c(OC)c(OC)c3)on2)cc1`, the IC50 is 100 nM in series [3], 10 nM in series [4], 10 nM in series [5] and 180 nM in series [6].
For `CCSc1nn2c3c(c(C)nc2c1C#N)Nc1ccccc1C(=O)N3C1CCCCC1`, the Activity in [7] is recorded as 100%.
Regarding `O=c1c(Cc2ccccc2)c[nH]c2c(-c3ccccn3)cnn12`, the Activity in [8] amounted to 165.4%; in series [9], 113.9%; in [10] it was 145.2%; in [11], 15; in [12], 28.9; in [13], 23.9. In addition, the figures for the Activity in [14] and in series [15] were 164.4% and 21.3, respectively. Further, in series [16], the Ki worked out at 183 nM.
Turning to `COc1ccc(Nc2nn3c(-c4ccccc4)cc(-c4ccccc4)nc3c2C(N)=O)c(OC)c1`, the IC50 in [17] worked out at 6280 nM; in [19], 17700 nM; in series [20], 161 nM. The compound also displayed an Activity in series [18] of 48.5%.
For `Cc1cc(C)nc(NS(=O)(=O)c2ccc(/N=N/c3c(N)nc4c(/N=N/c5ccc(C(F)(F)F)cc5)c(N)nn4c3N)cc2)n1`, the IC50 came to 3.9 µg/mL (≈ 6.23 µM) in series [21], 2.7 µg/mL in series [17] and 4.5 µg/mL in [4]. Further, the zone of inhibition at 5000 µg/mL was determined as 13 mm in [22]; 13 mm in [23]; 25 mm in [24]; 13 mm in series [25]; 13 mm in [26]; 13 mm in series [27]. In addition, the zone of inhibition at 5000 µg/mL worked out at 40 mm in series [28], 13 mm in [29] and 13 mm in [30].

What is called IC50 is the point on the concentration scale where inhibition reaches its midpoint. As usually defined, the Ki is the dissociation constant of the complex between target and ligand, obtained from inhibition or displacement.
